Test results reported in US20260297085A1, “1 H-PYRROLO[2,3-B]PYRIDIN-4-YL]-2-OXOPYRROLIDINE-3-CARBONITRILE DERIVATIVES AS TYROSINE KINASE 2 (TYK2) INHIBITORS FOR THE TREATMENT OF INFLAMMATORY DISEASES” (BIOGEN MA INC., priority 2023, published 2026).
Counter-ions that a name gives are not always drawn.

Tests used:
[1] = target: T1, human TYK2 kinase domain (JH1) (Homo sapiens, UniProt P29597); assay: JH1 biochemical assay for TYK2 (ADP-Glo kinase assay, recombinant JH1 catalytic domain, JAK3-974 peptide, 10 μM ATP)
T1 construct: recombinantly generated catalytic kinase (also known as JH1) domain of human JAK1, JAK2, JAK3 and TYK2
T1 sequence (P29597 897-1176 limits assumed): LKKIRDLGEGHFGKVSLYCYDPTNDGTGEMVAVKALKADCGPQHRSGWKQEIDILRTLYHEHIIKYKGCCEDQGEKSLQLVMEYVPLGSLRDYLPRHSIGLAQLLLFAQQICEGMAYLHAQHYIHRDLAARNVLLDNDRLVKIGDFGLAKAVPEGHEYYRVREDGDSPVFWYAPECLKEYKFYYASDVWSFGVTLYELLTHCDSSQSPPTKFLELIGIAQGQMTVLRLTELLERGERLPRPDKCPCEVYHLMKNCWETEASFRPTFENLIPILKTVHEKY
In short: (§1)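 Kinase 4 nM JAK1 / 0.2 nM JAK2 / 0.3 nM JAK3 / 2 nM TYK2; 50 μM peptide; 100 min. Unused ATP depleted, ADP→ATP, luciferase luminescence. 11-pt 3-fold series from 10 or 1 μM; normalized, 4PL fit → IC50.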

[2] = target: T2, human JAK1 kinase domain (JH1) (Homo sapiens, UniProt P23458); assay: JH1 biochemical assay for JAK1 (ADP-Glo kinase assay, recombinant JH1 catalytic domain, JAK3-342 peptide, 35 μM ATP)
T2 construct: recombinantly generated catalytic kinase (also known as JH1) domain of human JAK1, JAK2, JAK3 and TYK2
In short: as §1

[3] = target: T3, human JAK2 kinase domain (JH1) (Homo sapiens, UniProt O60674); assay: JH1 biochemical assay for JAK2 (ADP-Glo kinase assay, recombinant JH1 catalytic domain, JAK3-974 peptide, 15 μM ATP)
T3 construct: recombinantly generated catalytic kinase (also known as JH1) domain of human JAK1, JAK2, JAK3 and TYK2
In short: as §1

[4] = target: T4, human JAK3 kinase domain (JH1) (Homo sapiens, UniProt P52333); assay: JH1 biochemical assay for JAK3 (ADP-Glo kinase assay, recombinant JH1 catalytic domain, JAK3-974 peptide, 4 μM ATP)
T4 construct: recombinantly generated catalytic kinase (also known as JH1) domain of human JAK1, JAK2, JAK3 and TYK2
In short: as §1

[5] = target: Tyk2 kinase activity on STAT4 in NK92 cells (Homo sapiens, UniProt P29597); assay: pSTAT4 cell assay (MSD; NK92 cells, 30 ng/mL IL2 stimulation); format: cell-based; settings: 30 ng/mL IL2, 15 minutes
In short: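 IC50 values come from 4-parameter logistic fits of normalized percent activity. Phospho-STAT was read by MSD (anti-STAT4 antibodies) in NK92 lysates after a 15 min stimulation with 30 ng/mL IL2. The serum-starved cells had been given compound for 1 h (10 points, four-fold, top 10 μM).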

[6] = target: JAK2 kinase activity on STAT5 in TF1 cells (Homo sapiens, UniProt O60674); assay: pSTAT5 cell assay (MSD; TF1 cells, 30 ng/mL IL-3 stimulation); format: cell-based; settings: 30 ng/mL IL-3, 15 minutes
In short: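 IC50 from a 4-parameter logistic fit of normalized pSTAT5 signal, measured by MSD in lysates of TF1 cells. Cells were serum-starved, exposed to compound for 1 h (top concentration 10 μM, four-fold, 10 points), then given IL-3 at 30 ng/mL for 15 min.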

[7] = target: JAK1 kinase activity on STAT3 in TF1 cells (Homo sapiens, UniProt P23458); assay: pSTAT3 cell assay (MSD; TF1 cells, 30 ng/mL IL-6 stimulation); format: cell-based; settings: 30 ng/mL IL-6, 15 minutes
In short: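 Serum starvation, 1 h compound (10 pt, 4-fold from 10 μM), IL-6 15 min, lysis. pSTAT3 read by MSD immunoassay, anti-STAT3 Abs. Normalized % activity vs log[cpd], 4-PL fit → IC50.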

Sequence of Tyk2 kinase activity on STAT4 in NK92 cells (P29597 whole entry): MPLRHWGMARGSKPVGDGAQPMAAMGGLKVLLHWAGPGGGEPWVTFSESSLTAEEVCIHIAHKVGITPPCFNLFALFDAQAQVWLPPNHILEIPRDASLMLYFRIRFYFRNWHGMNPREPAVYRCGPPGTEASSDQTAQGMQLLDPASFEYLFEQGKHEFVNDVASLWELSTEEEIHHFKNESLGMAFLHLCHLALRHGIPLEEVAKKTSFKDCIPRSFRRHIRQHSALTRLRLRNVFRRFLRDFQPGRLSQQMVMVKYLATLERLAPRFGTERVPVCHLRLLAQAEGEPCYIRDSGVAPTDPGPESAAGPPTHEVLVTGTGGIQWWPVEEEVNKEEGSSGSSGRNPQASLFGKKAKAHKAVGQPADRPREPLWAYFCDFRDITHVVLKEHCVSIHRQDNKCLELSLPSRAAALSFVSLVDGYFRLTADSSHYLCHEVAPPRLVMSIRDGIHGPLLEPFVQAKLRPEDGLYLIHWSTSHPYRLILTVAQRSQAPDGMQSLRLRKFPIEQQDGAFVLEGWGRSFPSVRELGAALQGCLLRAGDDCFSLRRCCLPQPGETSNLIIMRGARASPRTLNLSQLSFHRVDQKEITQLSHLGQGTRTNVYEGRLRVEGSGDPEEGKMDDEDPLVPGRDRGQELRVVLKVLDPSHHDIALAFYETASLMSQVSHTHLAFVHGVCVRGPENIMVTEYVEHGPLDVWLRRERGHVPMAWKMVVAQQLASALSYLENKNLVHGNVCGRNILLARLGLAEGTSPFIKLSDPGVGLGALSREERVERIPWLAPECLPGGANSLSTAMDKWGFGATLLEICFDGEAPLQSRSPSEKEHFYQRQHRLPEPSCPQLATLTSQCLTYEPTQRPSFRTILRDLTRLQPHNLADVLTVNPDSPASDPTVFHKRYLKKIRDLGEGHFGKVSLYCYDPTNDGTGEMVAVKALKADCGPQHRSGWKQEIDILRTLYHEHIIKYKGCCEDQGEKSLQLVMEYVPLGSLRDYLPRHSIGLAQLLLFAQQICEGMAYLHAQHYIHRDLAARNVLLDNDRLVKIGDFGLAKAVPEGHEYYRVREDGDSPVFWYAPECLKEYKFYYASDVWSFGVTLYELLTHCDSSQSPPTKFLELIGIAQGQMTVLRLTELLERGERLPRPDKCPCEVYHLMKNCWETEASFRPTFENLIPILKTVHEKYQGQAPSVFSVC
T2 sequence (P23458 875-1153 limits assumed): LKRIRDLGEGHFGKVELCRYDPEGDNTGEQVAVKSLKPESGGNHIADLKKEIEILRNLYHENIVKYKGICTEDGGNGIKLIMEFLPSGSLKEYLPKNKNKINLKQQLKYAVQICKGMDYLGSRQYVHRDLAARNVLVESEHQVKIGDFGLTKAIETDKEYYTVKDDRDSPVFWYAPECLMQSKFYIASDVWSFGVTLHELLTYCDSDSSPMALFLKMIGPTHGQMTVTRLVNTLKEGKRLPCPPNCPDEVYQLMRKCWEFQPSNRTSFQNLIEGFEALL
Sequence of JAK1 kinase activity on STAT3 in TF1 cells (P23458 whole entry): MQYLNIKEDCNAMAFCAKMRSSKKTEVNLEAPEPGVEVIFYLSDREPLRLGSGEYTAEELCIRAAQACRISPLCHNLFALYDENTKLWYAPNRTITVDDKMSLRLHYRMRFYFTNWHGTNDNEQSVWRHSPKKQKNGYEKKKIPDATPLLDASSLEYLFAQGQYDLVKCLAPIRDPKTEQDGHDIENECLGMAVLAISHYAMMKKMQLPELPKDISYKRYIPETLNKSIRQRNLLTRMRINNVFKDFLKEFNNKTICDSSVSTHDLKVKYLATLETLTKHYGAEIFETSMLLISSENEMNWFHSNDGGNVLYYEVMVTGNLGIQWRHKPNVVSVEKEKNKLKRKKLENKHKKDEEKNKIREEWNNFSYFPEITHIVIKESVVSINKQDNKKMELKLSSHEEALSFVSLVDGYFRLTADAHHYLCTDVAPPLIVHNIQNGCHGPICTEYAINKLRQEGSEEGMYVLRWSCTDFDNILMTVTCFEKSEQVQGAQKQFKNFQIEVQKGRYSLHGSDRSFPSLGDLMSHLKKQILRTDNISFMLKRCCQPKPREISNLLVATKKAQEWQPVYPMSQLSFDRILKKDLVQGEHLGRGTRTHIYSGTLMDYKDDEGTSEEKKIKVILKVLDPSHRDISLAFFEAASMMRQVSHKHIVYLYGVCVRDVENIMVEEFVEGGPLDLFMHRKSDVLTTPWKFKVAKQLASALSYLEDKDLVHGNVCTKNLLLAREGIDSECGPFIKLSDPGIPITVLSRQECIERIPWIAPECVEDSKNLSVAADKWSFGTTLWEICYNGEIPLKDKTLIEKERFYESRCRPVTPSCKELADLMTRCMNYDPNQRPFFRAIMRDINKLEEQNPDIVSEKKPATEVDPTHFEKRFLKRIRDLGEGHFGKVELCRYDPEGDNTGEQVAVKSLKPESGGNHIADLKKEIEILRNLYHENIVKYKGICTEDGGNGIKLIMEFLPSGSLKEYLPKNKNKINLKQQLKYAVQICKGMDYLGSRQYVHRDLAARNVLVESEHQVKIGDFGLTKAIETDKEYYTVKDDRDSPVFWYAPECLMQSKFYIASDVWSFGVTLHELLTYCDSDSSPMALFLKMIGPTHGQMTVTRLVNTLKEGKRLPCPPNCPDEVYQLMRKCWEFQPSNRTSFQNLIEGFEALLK
T3 sequence (O60674 849-1124 limits assumed): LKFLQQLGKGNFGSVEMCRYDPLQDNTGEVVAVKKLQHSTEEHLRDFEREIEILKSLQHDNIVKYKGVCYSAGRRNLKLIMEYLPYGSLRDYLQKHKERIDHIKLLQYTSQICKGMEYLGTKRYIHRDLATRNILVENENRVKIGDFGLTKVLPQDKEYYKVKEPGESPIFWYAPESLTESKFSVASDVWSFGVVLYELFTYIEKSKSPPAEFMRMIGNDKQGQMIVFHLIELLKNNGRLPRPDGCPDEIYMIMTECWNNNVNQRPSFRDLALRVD
T4 sequence (P52333 822-1111 limits assumed): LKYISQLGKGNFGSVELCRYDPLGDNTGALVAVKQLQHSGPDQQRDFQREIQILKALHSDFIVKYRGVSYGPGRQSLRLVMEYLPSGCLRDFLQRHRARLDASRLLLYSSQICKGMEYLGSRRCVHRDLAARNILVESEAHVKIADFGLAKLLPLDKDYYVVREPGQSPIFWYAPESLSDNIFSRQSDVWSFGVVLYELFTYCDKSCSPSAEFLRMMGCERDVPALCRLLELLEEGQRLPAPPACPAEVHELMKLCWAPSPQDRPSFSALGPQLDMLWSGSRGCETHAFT
Sequence of JAK2 kinase activity on STAT5 in TF1 cells (O60674 whole entry): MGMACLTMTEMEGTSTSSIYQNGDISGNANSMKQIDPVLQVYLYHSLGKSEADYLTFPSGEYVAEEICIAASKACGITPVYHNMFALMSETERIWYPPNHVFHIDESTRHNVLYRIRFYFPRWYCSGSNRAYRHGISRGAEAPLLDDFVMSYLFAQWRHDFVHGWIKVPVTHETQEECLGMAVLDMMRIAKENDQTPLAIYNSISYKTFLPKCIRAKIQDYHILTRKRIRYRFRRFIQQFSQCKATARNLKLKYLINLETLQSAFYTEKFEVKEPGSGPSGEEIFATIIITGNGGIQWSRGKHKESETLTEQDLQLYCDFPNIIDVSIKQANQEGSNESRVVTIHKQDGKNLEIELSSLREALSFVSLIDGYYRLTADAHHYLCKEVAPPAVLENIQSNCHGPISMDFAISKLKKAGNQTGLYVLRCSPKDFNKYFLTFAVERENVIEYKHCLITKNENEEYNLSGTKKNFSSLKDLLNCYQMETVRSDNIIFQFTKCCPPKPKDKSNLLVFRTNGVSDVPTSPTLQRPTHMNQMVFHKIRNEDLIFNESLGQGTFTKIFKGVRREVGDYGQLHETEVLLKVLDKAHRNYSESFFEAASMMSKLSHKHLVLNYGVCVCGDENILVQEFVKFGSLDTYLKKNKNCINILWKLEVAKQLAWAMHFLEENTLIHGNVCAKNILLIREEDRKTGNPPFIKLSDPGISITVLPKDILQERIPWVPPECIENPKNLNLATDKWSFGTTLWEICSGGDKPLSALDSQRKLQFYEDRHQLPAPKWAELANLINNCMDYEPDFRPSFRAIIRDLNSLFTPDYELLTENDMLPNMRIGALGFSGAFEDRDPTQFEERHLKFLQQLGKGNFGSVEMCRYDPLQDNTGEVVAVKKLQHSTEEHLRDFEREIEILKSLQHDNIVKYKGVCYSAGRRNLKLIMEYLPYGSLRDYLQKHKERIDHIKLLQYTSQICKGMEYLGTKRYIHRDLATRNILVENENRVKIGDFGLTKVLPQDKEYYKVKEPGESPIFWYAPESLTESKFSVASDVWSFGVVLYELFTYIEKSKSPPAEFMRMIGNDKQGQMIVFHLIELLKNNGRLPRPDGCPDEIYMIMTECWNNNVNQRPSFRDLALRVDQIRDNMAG

Compound	IC50 ([1]; JH1 kinase domain, ADP-Glo)	IC50 ([2]; JH1 kinase domain, ADP-Glo)	IC50 ([3]; JH1 kinase domain, ADP-Glo)	IC50 ([4]; JH1 kinase domain, ADP-Glo)	IC50 [5]	IC50 [6]	IC50 [7]	IC50 ([1]; TYK2 JH1, ADP-Glo)	IC50 ([2]; JAK1 JH1, ADP-Glo)	IC50 ([3]; JAK2 JH1, ADP-Glo)	IC50 ([4]; JAK3 JH1, ADP-Glo)
COc1cccc(-c2cn3nccc3c(N3C[C@@H](C)[C@@](C#N)(C4CC4)C3=O)n2)n1 [Example 193, (3R,4S)-3-cyclopropyl-1-(6-(6-methoxypyridin-2-yl)pyrazolo[1,5-a]pyrazin-4-yl)-4-methyl-2-oxopyrrolidine-3-carbonitrile]	0.005 to 0.02 µM	0.1 to 1 µM	> 10 µM	> 10 µM	> 0.1 µM	> 10 µM	> 10 µM				
CCn1cc(-c2cn3nccc3c(N3C[C@@H](C)[C@@](C#N)(C4CC4)C3=O)n2)cn1 [Example 202, (3R,4S)-3-cyclopropyl-1-(6-(1-ethyl-1H-pyrazol-4-yl)pyrazolo[1,5-a]pyrazin-4-yl)-4-methyl-2-oxopyrrolidine-3-carbonitrile]	< 0.005 µM	< 0.1 µM	< 0.1 µM	< 0.1 µM	0.05 to 0.1 µM	0.1 to 1 µM	0.1 to 1 µM				
C[C@@H]1CN(c2nc(-c3ccc(C#N)nc3)cn3nccc23)C(=O)[C@]1(C#N)C1CC1 [Example 195, 5-(4-((3R,4S)-3-cyano-3-cyclopropyl-4-methyl-2-oxopyrrolidin-1-yl)pyrazolo[1,5-a]pyrazin-6-yl)picolinonitrile]	0.005 to 0.02 µM	< 0.1 µM	0.1 to 1 µM	< 0.1 µM	> 0.1 µM	> 10 µM	1 to 5 µM				
C[C@@H]1CN(c2nc(-c3cc[nH]n3)cn3nccc23)C(=O)[C@]1(C#N)C1CC1 [Example 232, (3R,4S)-1-(6-(1H-pyrazol-3-yl)pyrazolo[1,5-a]pyrazin-4-yl)-3-cyclopropyl-4-methyl-2-oxopyrrolidine-3-carbonitrile trifluoroacetate]					> 0.1 µM	> 10 µM	1 to 5 µM	0.005 to 0.02 µM	< 0.1 µM	0.1 to 1 µM	0.1 to 1 µM
Cc1cnn2cc(-c3cnn(C)c3)nc(N3C[C@@H](C)[C@@](C#N)(C4CC4)C3=O)c12 [Example 186, (3R,4S)-3-cyclopropyl-4-methyl-1-(3-methyl-6-(1-methyl-1H-pyrazol-4-yl)pyrazolo[1,5-a]pyrazin-4-yl)-2-oxopyrrolidine-3-carbonitrile]	0.05 to 0.1 µM	1 to 5 µM	1 to 5 µM	0.1 to 1 µM	> 0.1 µM	> 10 µM	> 10 µM				
C[C@@H]1CN(c2ccnn3cc(-c4cn(C5COC5)nc4F)cc23)C(=O)[C@]1(C#N)C1CC1 [Example 321, (3R,4S)-3-cyclopropyl-1-(6-(3-fluoro-1-(oxetan-3-yl)-1H-pyrazol-4-yl)pyrrolo[1,2-b]pyridazin-4-yl)-4-methyl-2-oxopyrrolidine-3-carbonitrile]					0.05 to 0.1 µM	1 to 5 µM	1 to 5 µM	< 0.005 µM	0.1 to 1 µM	< 0.1 µM	0.1 to 1 µM
C[C@@H]1CN(c2ccnc3[nH]c(-c4cnn(C)c4)nc23)C(=O)[C@]1(C#N)C1CC1 [Example 181, (3R,4S)-3-cyclopropyl-4-methyl-1-(2-(1-methyl-1H-pyrazol-4-yl)-3H-imidazo[4,5-b]pyridin-7-yl)-2-oxopyrrolidine-3-carbonitrile]	0.005 to 0.02 µM	0.1 to 1 µM	0.1 to 1 µM	0.1 to 1 µM	> 0.1 µM	5 to 10 µM	1 to 5 µM				
C[C@@H]1CN(c2ccnn3cc(-c4cnn(C5CCN(C)CC5)c4)cc23)C(=O)[C@]1(C#N)C1CC1 [Example 331, (3R,4S)-3-cyclopropyl-4-methyl-1-(6-(1-(1-methylpiperidin-4-yl)-1H-pyrazol-4-yl)pyrrolo[1,2-b]pyridazin-4-yl)-2-oxopyrrolidine-3-carbonitrile]					0.05 to 0.1 µM	0.1 to 1 µM	1 to 5 µM	< 0.005 µM	0.1 to 1 µM	< 0.1 µM	< 0.1 µM
CC(=O)Nc1cccc(-c2cc3c(N4C[C@@H](C)[C@@](C#N)(C5CC5)C4=O)ccnn3c2)n1 [Example 131, N-(6-(4-((3R,4S)-3-cyano-3-cyclopropyl-4-methyl-2-oxopyrrolidin-1-yl)pyrrolo[1,2-b]pyridazin-6-yl)pyridin-2-yl)acetamide trifluoroacetate]	< 0.005 µM	< 0.1 µM	0.1 to 1 µM	0.1 to 1 µM	0.05 to 0.1 µM	1 to 5 µM	0.1 to 1 µM				
C[C@@H]1CN(c2ccnn3cc(-c4cccc5cncn45)cc23)C(=O)[C@]1(C#N)C1CC1 [Example 128, (3R,4S)-3-cyclopropyl-1-(6-(imidazo[1,5-a]pyridin-5-yl)pyrrolo[1,2-b]pyridazin-4-yl)-4-methyl-2-oxopyrrolidine-3-carbonitrile trifluoroacetate]	0.005 to 0.02 µM	0.1 to 1 µM	1 to 5 µM	0.1 to 1 µM	> 0.1 µM	> 10 µM	> 10 µM				

The next lines start with the values.

IC50 ([1]; JH1 kinase domain, ADP-Glo)	IC50 ([2]; JH1 kinase domain, ADP-Glo)	IC50 ([3]; JH1 kinase domain, ADP-Glo)	IC50 ([4]; JH1 kinase domain, ADP-Glo)	IC50 [5]	IC50 [6]	IC50 [7]	IC50 ([1]; TYK2 JH1, ADP-Glo)	IC50 ([2]; JAK1 JH1, ADP-Glo)	IC50 ([3]; JAK2 JH1, ADP-Glo)	IC50 ([4]; JAK3 JH1, ADP-Glo)	Compound
< 0.005 µM	0.1 to 1 µM	0.1 to 1 µM	0.1 to 1 µM	> 0.1 µM	> 10 µM	> 10 µM					C[C@@H]1CN(c2ccnn3cc(-c4cn(C)cn4)cc23)C(=O)[C@]1(C#N)C1CC1 [Example 111, (3R,4S)-3-cyclopropyl-4-methyl-1-(6-(1-methyl-1H-imidazol-4-yl)pyrrolo[1,2-b]pyridazin-4-yl)-2-oxopyrrolidine-3-carbonitrile trifluoroacetate]
0.005 to 0.02 µM	0.1 to 1 µM	1 to 5 µM	0.1 to 1 µM	> 0.1 µM	> 10 µM	5 to 10 µM					C[C@@H]1CN(c2ccnn3cc(-c4ccc(C#N)nc4)cc23)C(=O)[C@]1(C#N)C1CC1 [Example 86, 5-(4-((3R,4S)-3-cyano-3-cyclopropyl-4-methyl-2-oxopyrrolidin-1-yl)pyrrolo[1,2-b]pyridazin-6-yl)picolinonitrile trifluoroacetate]
				0.05 to 0.1 µM	1 to 5 µM	1 to 5 µM	< 0.005 µM	< 0.1 µM	< 0.1 µM	< 0.1 µM	C[C@@H]1CN(c2nc(-c3cnn(C4COC4)c3)cn3ncc(F)c23)C(=O)[C@]1(C#N)C1CC1 [Example 291, (3R,4S)-3-cyclopropyl-1-(3-fluoro-6-(1-(oxetan-3-yl)-1H-pyrazol-4-yl)pyrazolo[1,5-a]pyrazin-4-yl)-4-methyl-2-oxopyrrolidine-3-carbonitrile]
				> 0.1 µM	1 to 5 µM	1 to 5 µM	< 0.005 µM	< 0.1 µM	0.1 to 1 µM	< 0.1 µM	CC(C)n1cc(-c2cc3nccc(N4C[C@@H](C)[C@@](C#N)(C5CC5)C4=O)c3o2)cn1 [Example 346, (3R,4S)-3-cyclopropyl-1-(2-(1-isopropyl-1H-pyrazol-4-yl)furo[3,2-b]pyridin-7-yl)-4-methyl-2-oxopyrrolidine-3-carbonitrile]
0.005 to 0.02 µM	0.1 to 1 µM	0.1 to 1 µM	0.1 to 1 µM	> 0.1 µM	> 10 µM	1 to 5 µM					C[C@@H]1CN(c2ccnn3cc(-c4cnc(C(F)F)s4)cc23)C(=O)[C@]1(C#N)C1CC1 [Example 101, (3R,4S)-3-cyclopropyl-1-(6-(2-(difluoromethyl)thiazol-5-yl)pyrrolo[1,2-b]pyridazin-4-yl)-4-methyl-2-oxopyrrolidine-3-carbonitrile trifluoroacetate]
				> 0.1 µM	> 10 µM	1 to 5 µM	0.005 to 0.02 µM	0.1 to 1 µM	1 to 5 µM	0.1 to 1 µM	Cc1cc(-n2nc(N3C[C@@H](C)[C@@](C#N)(C4CC4)C3=O)c3ccncc32)ccn1 [Example 281, (3R,4S)-3-cyclopropyl-4-methyl-1-(1-(2-methylpyridin-4-yl)-1H-pyrazolo[3,4-c]pyridin-3-yl)-2-oxopyrrolidine-3-carbonitrile]
